{
  "source": "patent US4576962A",
  "about": "“Prostaglandin analogues” (priority 1984, dated 1986)",
  "key": {"[1]": {"assay": "enteropooling assay (diarrheogenic effect, Robert)", "type": "in vivo", "details": "in vivo; for selectivity ratio: enteropooling dose relative to ED50 cytoprotection, defined in drawing 10, read-out: TI (therapeutic index)", "excerpt": "(§1) One of the most important side-effects of prostaglandins and prostaglandin analogues is their diarrheogenic effect. An assay was developed by Robert to test the diarrheogenic properties of prostaglandins and prostaglandin analogues. The test quantitatively determines the amount of \"enteropooling\", i.e. the accumulation of fluid into the small intestine."}, "[2]": {"details": "rat model; compared to natural prostaglandin PGE2; cited from earlier work"}, "[3]": {"test_system": "stomach mucosa", "assay": "cytoprotective activity in rats (absolute ethanol induced stomach mucosa lesions)", "type": "in vivo, Sprague-Dawley rats", "details": "for ED50 / Cytoprotection %: rat, oral; for ED50: read-out: ED50 Cytoprotection", "procedure": "A number of the 13,14-didehydro-15-oxo-prostaglandin analogues have been tested for cytoprotective activity in rats. In this test, Sprague-Dawley rats were fasted for 24 hours prior to the pretreatment. […] The control animals were given 2.5 ml of the vehicle, without prostaglandin analogue. A half hour later after the pretreatment, absolute ethanol was administered orally to the animals, in a dose of 10 mL per kg body weight. One hour later the animals were sacrificed, their stomachs dissected out, opened along the greater curvature and the mucosa examined for lesions. The average lesion length is expressed as percentage of the average lesion length found in the stomach mucosa of control animals.\nImportantly, this test measures the active cytoprotective properties of the prostaglandin analogues, independent of the gastric secretion inhibition that these compounds may or may not show. The test is discussed more fully by Robert et al., Gastroenterology 77 (1979) 433, incorporated herein by reference."}, "[4]": {"test_system": "small intestine", "assay": "enteropooling assay (diarrheogenic effect, Robert)", "type": "in vivo", "excerpt": "as §1"}, "[5]": {"test_system": "pregnant quinea pigs", "assay": "abortificative effect in pregnant guinea pigs", "type": "in vivo", "details": "25 mg/kg oral, days 43 and 44 of gestation, 6 animals", "procedure": "Another important side effect of natural prostaglandins and prostaglandin analogues is their abortificative effect. Compound 1 was tested for this effect as follows."}, "[6]": {"test_system": "rat fundic strip", "assay": "smooth muscle contraction, rat fundic strip assay", "procedure": "The smooth muscle contraction potency of compound 1 was tested in the rat fundic strip assay, described by W. L. M. Perry in \"Pharmacological Experiments on Isolated Preparations,\" 2nd ed. (1970), pp. 88-89, Churchill L. Livingstone, publisher."}, "[7]": {"test_system": "gastric ulceration", "assay": "gastric ulceration in arthritis patients receiving aspirin, tablets four times daily", "type": "in vivo", "details": "tablets orally four times daily; patients with arthritis on 1000 mg aspirin daily"}, "[8]": {"test_system": "gastric ulceration", "assay": "gastric ulceration in patients, capsules administered twice daily", "type": "in vivo", "details": "patient ca. 70 kg"}, "[9]": {"details": "metabolism / intragastric dehydrogenation at C15; cited from earlier work"}, "[10]": {"test_system": "PGDH", "details": "Gandolfi et al.; cited from earlier work"}, "[11]": {"details": "background art; cited from earlier work"}, "[12]": {"details": "dose 0.5 mg/kg, negative = lesions worse than control"}},
  "data": [
    {"smiles": "CCCCC(C)(C)[C@H](O)/C=C/[C@H]1[C@H](O)CC(=O)[C@@H]1C/C=C\\CCCC(=O)O", "note": "[16,16-dimethyl PGE2]", "values": [
      {"measurement": "TD50", "setting": "[1]", "result": 0.0005, "unit": "mg/kg"},
      {"measurement": "selectivity ratio", "setting": "[1]", "result": 10},
      {"measurement": "ED50 for cytoprotection", "setting": "[2]", "result": "lower value of the ED50"}
    ]},
    {"smiles": "CCCCCC(=O)C#C[C@H]1CCC(=O)[C@@H]1CCCCCCC(=O)O", "note": "(relative stereo) [Compound 1, 11-Deoxy-13,14-didehydro-15-oxo PGE1]", "values": [
      {"measurement": "ED50", "setting": "[3]", "result": 0.1, "unit": "mg/kg"},
      {"measurement": "TD50", "setting": "[1]", "result": 25, "unit": "mg/kg"},
      {"measurement": "selectivity ratio", "setting": "[1]", "result": 250},
      {"measurement": "diarrheogenic effect", "setting": "[4]; compared to PGE2 and PGE2 analogues", "result": "very low diarrheogenic effect"},
      {"measurement": "therapeutic index", "setting": "[4]; compared with the other compounds of table 2", "result": "significantly higher"},
      {"measurement": "abortion induced", "setting": "[5]", "result": "in none of the animals did the dose of compound 1 induce abortion"},
      {"measurement": "EC50 for smooth muscle contraction relative to PGE2", "setting": "[6]; compound 1 EC50 higher than that of PGE2", "result": "three orders of magnitude higher"},
      {"measurement": "EC50 for smooth muscle contraction relative to PGF2α and PGE1", "setting": "[6]; compound 1 EC50 higher than that of PGF2α and PGE1", "result": "two orders of magnitude higher"},
      {"measurement": "EC50", "setting": "[6]; rat fundic strip", "result": 5, "unit": "µM"}
    ]},
    {"smiles": "CCCCCC(=O)C#C[C@H]1CCC(=O)[C@@H]1CCCCCCC(=O)OC", "note": "(relative stereo) [PGE1 triple oxo (a) (d)]", "values": [
      {"measurement": "Cytoprotection %", "setting": "[3]; [12]", "result": 39, "unit": "%"},
      {"measurement": "Cytoprotection %", "setting": "[3]; dose 1 mg/kg", "result": 81, "unit": "%"},
      {"measurement": "Cytoprotection %", "setting": "[3]; dose 3 mg/kg", "result": 78, "unit": "%"},
      {"measurement": "Cytoprotection %", "setting": "[3]; dose 5 mg/kg", "result": 96, "unit": "%"}
    ]},
    {"smiles": "CCCCCC(=O)C#C[C@@H]1[C@@H](C/C=C\\CCCC(=O)O)[C@@H](O)C[C@H]1O", "note": "[13,14-didehydro-15-oxo-PGF2α]", "values": [
      {"measurement": "reduction of incidence of gastric ulceration", "setting": "[7]", "result": "effectively reduces the incidence of gastric ulceration"}
    ]},
    {"smiles": "CCCCCC(=O)C#C[C@H]1[C@H](O)CC(=O)[C@@H]1CCCCCCC(=O)O", "note": "[13,14-didehydro-15-oxo PGE1]", "values": [
      {"measurement": "reduction of gastric ulceration", "setting": "[8]", "result": "substantially reduce gastric ulceration"}
    ]},
    {"smiles": "CCCCC[C@](C)(O)/C=C/[C@H]1[C@H](O)CC(=O)[C@@H]1C/C=C\\CCCC(=O)O", "note": "[15(S),15-methyl PGE2]", "values": [
      {"measurement": "stability", "setting": "[9]", "result": "more stable than PGE2 itself"}
    ]},
    {"smiles": "CCCCC[C@H](O)/C=C/[C@@H]1[C@@H](C/C=C\\CCCC(=O)OC)[C@@H](O)C[C@H]1O", "note": "[PGF2α trans OH (a)]", "values": [
      {"measurement": "Cytoprotection %", "setting": "[3]; dose 0.001 mg/kg", "result": -19, "unit": "%"},
      {"measurement": "Cytoprotection %", "setting": "[3]; dose 0.01 mg/kg", "result": 1.7, "unit": "%"},
      {"measurement": "Cytoprotection %", "setting": "[3]; dose 0.1 mg/kg", "result": -17, "unit": "%"},
      {"measurement": "Cytoprotection %", "setting": "[3]; [12]", "result": 82, "unit": "%"}
    ]},
    {"smiles": "CCCCCC(=O)/C=C/[C@H]1CCC(=O)[C@@H]1CCCCCCC(=O)OC", "note": "(relative stereo) [PGE1 trans oxo (a) (d)]", "values": [
      {"measurement": "Cytoprotection %", "setting": "[3]; [12]", "result": -22, "unit": "%"},
      {"measurement": "Cytoprotection %", "setting": "[3]; dose 3 mg/kg", "result": 52, "unit": "%"}
    ]},
    {"smiles": "CCCC[C@@H](C)[C@H](O)C#C[C@H]1[C@H](O)CC(=O)[C@@H]1C/C=C\\CCCC(=O)O", "note": "[16(R),16-methyl-13-dehydro PGE2]", "values": [
      {"measurement": "substrate for the enzyme PGDH", "setting": "[10]", "result": "not substrates for the enzyme PGDH"},
      {"measurement": "gastric anti-ulcer properties / activity", "setting": "[11]", "result": "potent gastric anti-ulcer properties"}
    ]},
    {"smiles": "CCCC[C@H](C)[C@H](O)C#C[C@H]1[C@H](O)CC(=O)[C@@H]1C/C=C\\CCCC(=O)O", "note": "[16(S),16-methyl-13-dehydro PGE2]", "values": [
      {"measurement": "substrate for the enzyme PGDH", "setting": "[10]", "result": "not substrates for the enzyme PGDH"},
      {"measurement": "gastric anti-ulcer properties / activity", "setting": "[11]", "result": "potent gastric anti-ulcer properties"}
    ]},
    {"smiles": "CCCCC[C@@](C)(O)/C=C/[C@H]1[C@H](O)CC(=O)[C@@H]1C/C=C\\CCCC(=O)O", "note": "[15(R)-15-methyl PGE2]", "values": [
      {"measurement": "TD50", "setting": "[1]", "result": 0.005, "unit": "mg/kg"},
      {"measurement": "selectivity ratio", "setting": "[1]", "result": "25 to 100"},
      {"measurement": "ED50 for cytoprotection", "setting": "[2]", "result": "lower value of the ED50"},
      {"measurement": "stability", "setting": "[9]", "result": "better stability"}
    ]},
    {"smiles": "CCCCC[C@H](O)/C=C/[C@H]1[C@H](O)CC(=O)[C@@H]1C/C=C\\CCCC(=O)O", "note": "[PGE2]", "values": [
      {"measurement": "ED50", "setting": "[3]", "result": 0.025, "unit": "mg/kg"},
      {"measurement": "selectivity ratio", "setting": "[1]", "result": 30},
      {"measurement": "Enteropooling Dose (ED50 for enteropooling)", "setting": "[4]; in vivo", "result": 0.750, "unit": "mg/kg"},
      {"measurement": "stability", "setting": "[9]", "result": "readily metabolized"}
    ]},
    {"smiles": "CCCCCC(=O)C#C[C@@H]1[C@@H](C/C=C\\CCCC(=O)OC)[C@@H](O)C[C@H]1O", "note": "[PGF2α triple oxo (a), 13,14-didehydro-15-keto PGF2α methyl ester]", "values": [
      {"measurement": "cytoprotective potency", "setting": "[3]; compared with PGF2α itself (tests nos. 7-10)", "result": "much more potent cytoprotective agent"},
      {"measurement": "Cytoprotection %", "setting": "[3]; dose 0.001 mg/kg", "result": 6, "unit": "%"},
      {"measurement": "Cytoprotection %", "setting": "[3]; dose 0.01 mg/kg", "result": 23, "unit": "%"},
      {"measurement": "Cytoprotection %", "setting": "[3]; dose 0.1 mg/kg", "result": 50, "unit": "%"},
      {"measurement": "Cytoprotection %", "setting": "[3]; [12]", "result": 98, "unit": "%"}
    ]}
  ]
}
